Measurements published in US9102623B2, “Pyridinecarboxamides, useful-plant-protecting composition comprising them and processes for their preparation and their use” (Bayer Cropscience AG, priority 2007, dated 2015).

Key:
Format in all cases: in vivo
barley = assay: Post-emergence safener action in barley with the herbicide mesosulfuron-methyl; conditions: greenhouse, visual scoring of damage
Text: (§1) The damage to the plants is scored visually using a scale of 0-100%, in comparison to control plants:
(§2) 0%=no noticeable effect compared to the untreated plant
(§3) 100%=the treated plants dies.
(§4) Seeds or rhizome pieces of monocotyledonous and dicotyledonous harmful plants and crop plants are placed in sandy loam soil in plastic pots, covered with soil and cultivated in the greenhouse under good growth conditions. Alternatively, harmful plants encountered in paddy rice cultivation are cultivated in pots in which the surface of the soil is covered by up to 2 cm of water. Three weeks after sowing, the test plants are treated at the three-leaf stage. The herbicide/safener active compound combinations according to the invention, formulated as emulsion concentrates, and in parallel tests the individual active compounds formulated in a corresponding manner, are sprayed at various dosages at a water application rate of […] (converted) onto the green parts of the plants, and, after the test plants were left to stand in the greenhouse for about 2 to 3 weeks under optimum growth conditions, the effect of the preparations is scored visually in comparison to untreated controls. In the case of rice or harmful plants encountered in the cultivation of rice, the active compounds are also added directly to the irrigation water (application analogously to the so-called granule application) or sprayed onto the plants and into the irrigation water. […]

corn [1] = assay: Pre-emergence safener action in corn with the herbicide isoxaflutol; conditions: greenhouse, visual scoring after 3 to 4 weeks
Text: as §1, §2, §3
Seeds or rhizome pieces of monocotyledonous and dicotyledonous weed plants and crop plants were placed in sandy loam soil in plastic pots and covered with soil. The herbicide/safener active compound combinations according to the invention, formulated as suspension emulsion concentrates, and in parallel tests the individual active compounds formulated in a corresponding manner, were then, at various dosages at a water application rate of 600 to 800 l/ha (converted), applied to the surface of the covering soil.
After the treatment, the pots were placed in the greenhouse and kept under good growth conditions for the weeds and the crop plants. Visual scoring of the plant damage or emergence damage was carried out after the test plants had emerged after a test period of 3 to 4 weeks, in comparison to untreated controls.

corn [2] = assay: Post-emergence safener action in corn with the herbicide tembotrione; conditions: greenhouse, visual scoring of damage
Text: as §1, §2, §3, §4

SMILES | safener action for the herbicide mesosulfuron-methyl (barley) | safener action in combination with the herbicide isoxaflutol (corn [1]) | safener action for the herbicide tembotrione (corn [2])
CCNC(=O)c1ccc(C(F)(F)F)[nH]c1=O [Compound 2] | good safener action | good safener action | 
O=C(NC1CCCCC1)c1ccc(C(F)(F)F)[nH]c1=O [Compound 19] |  | good safener action | 
C#CCNC(=O)c1ccc(C(F)(F)F)[nH]c1=O [Compound 39] |  | good safener action | 
COC(=O)CN(C)C(=O)c1ccc(C(F)(F)F)[nH]c1=O [Compound 72] |  | good safener action | 
CC(C)(C)NC(=O)c1ccc(C(F)(F)Cl)[nH]c1=O [Compound 122] |  | good safener action | 
CCC(C)NC(=O)c1ccc(C(F)(F)Cl)[nH]c1=O (stereo not shown) [Compound 155] | good safener action | good safener action | 
CCONC(=O)c1ccc(C(F)(F)Cl)[nH]c1=O [Compound 193] | good safener action | good safener action | 
CONC(=O)c1ccc(C(F)(F)Cl)[nH]c1=O [Compound 194] | good safener action | good safener action | 
O=C(c1ccc(C(F)(F)Cl)[nH]c1=O)N1CCCC1 [Compound 217] |  | good safener action | 
CC(C)NC(=O)c1ccc(C(F)F)[nH]c1=O [Compound 232, 6-Difluoromethyl-N-isopropyl-2-oxo-1,2-dihydropyridine-3-carboxamide] |  | good safener action | 
CCCC(C)NC(=O)c1ccc(C(F)F)[nH]c1=O (stereo not shown) [Compound 271] |  | good safener action | 
NC(=O)c1ccc(C(F)(F)C(F)(F)F)[nH]c1=O [Compound 341, 2-Oxo-6-(pentafluoroethyl)-1,2-dihydropyridine-3-carboxamide] | good safener action | good safener action | good safener action
C#CCNC(=O)c1ccc(C(F)(F)C(F)(F)F)[nH]c1=O [Compound 380] |  | good safener action | 
CCC(CC)NC(=O)c1ccc(C(F)(F)C(F)(F)F)[nH]c1=O [Compound 392] | good safener action | good safener action | 
CCNC(=O)c1cc(Br)c(C(F)(F)F)[nH]c1=O [Compound 911] | good safener action |  | good safener action
CC(C)NC(=O)c1cc(Br)c(C(F)(F)F)[nH]c1=O [Compound 913] | good safener action |  | good safener action
C=CCNC(=O)c1cc(Br)c(C(F)(F)F)[nH]c1=O [Compound 943, N-Allyl-5-bromo-2-oxo-6-(trifluoromethyl)-1,2-dihydropyridine-3-carboxamide] | good safener action |  | good safener action
CCC(CC)NC(=O)c1cc(Br)c(C(F)(F)F)[nH]c1=O [Compound 960] | good safener action |  | good safener action
CCCNC(=O)c1cc(Br)c(C(F)(F)Cl)[nH]c1=O [Compound 1026] | good safener action |  | good safener action
CNC(=O)c1ccc(C(F)(F)C(F)F)[nH]c1=O [Compound 1368, N-Methyl-2-oxo-6-(1,1,2,2-tetrafluoroethyl)-1,2-dihydropyridine-3-carboxamide] |  | good safener action | good safener action
CCNC(=O)c1ccc(C(F)(F)C(F)(F)C(F)(F)F)[nH]c1=O [Compound 1597] |  | good safener action | good safener action
CCCNC(=O)c1ccc(C(F)(F)C(F)(F)C(F)(F)F)[nH]c1=O [Compound 1598, 6-(Heptafluoropropyl)-2-oxo-N-propyl-1,2-dihydropyridine-3-carboxamide] | good safener action |  | good safener action
CC(C)NC(=O)c1ccc(C(F)(F)C(F)(F)C(F)(F)F)[nH]c1=O [Compound 1599] | good safener action |  | good safener action
O=C(NC1CC1)c1ccc(C(F)(F)C(F)(F)C(F)(F)F)[nH]c1=O [Compound 1600] | good safener action |  | good safener action
CC(C)CNC(=O)c1ccc(C(F)(F)C(F)(F)C(F)(F)F)[nH]c1=O [Compound 1625] |  | good safener action | good safener action
CCC(C)NC(=O)c1ccc(C(F)(F)C(F)(F)C(F)(F)F)[nH]c1=O (stereo not shown) [Compound 1636] | good safener action | good safener action | good safener action
